For series [1], the system named is CHLA-200 cells. It counts as cell-based, human. The note with it: 24 hr; read-out: IC50 (cell viability).
Procedure: (§3) Cell viability was evaluated by a CCK-8 assay (Dojindo, Japan). Cells were seeded at a density of 4,000 cells per well in 100 μl of growth medium in 96-well plates and grown overnight. Then, the cells were exposed to antisense miR-20a alone, p28 alone or negative control or AmiR20-p28 over a range of concentrations and incubated for 24 hr. According to the manufacturer's instructions, 10 μl of CCK-8 solution was added to each well, followed by incubation for 1 hr at 37° C. The absorbance at 450 nm was determined by a multiplate reader.
(§4) Cell viability (%)=Abs(sample)−Abs(blank)/Abs(no treatment)−Abs(blank)×100
The next series has as its system LN-229 cells. Briefly: CCK-8 cell viability assay, LN-229. It counts as cell-based, human. The note with it: 24 hr. (In general: Tetrazolium assays rely on reduction of a dye to a coloured formazan, in cell work by metabolically active cells.)
Another series concerns normal human astrocytes. Briefly: CCK-8 cell viability assay, normal human astrocytes. It counts as cell-based. As to conditions: 24 hr.
Series [2] relates to SJ-GBM2 cells. In words: Annexin V/PI flow cytometric apoptosis assay, SJ-GBM2. Format: cell-based, human. As to conditions: 10 nM, 24 h. The protocol: (§1) Cells were seeded into 10-cm dishes and cultured overnight. Then, the cells were treated with 10 nM antisense miR-20a alone, p28 alone or AmiR20-p28 for 24 hr. Cells were washed with 1×PBS, detached with TrypleE (Invitrogen). and collected by centrifugation. Cells were washed and resuspended with 1× Annexin binding buffer (Life Technologies, catalog #V13242), and the cell density was maintained at 10^6 cells/ml. Subsequently, 5 μl of Annexin-V was added to 100 μl of the cell suspension, and the mixture was incubated for 15 min at room temperature. The cells were washed and incubated with 5 μl of PI for an additional 15 min on ice, washed and resuspended in 200 μl of buffer. Cells without treatment were used as controls. After washing, cells were subjected to flow cytometry (Gallios flow cytometer) and analyzed with Kaluza software to give the proportions of dead (top left quadrant), late apoptotic (top right quadrant), early apoptotic (bottom right quadrant) and viable (bottom left quadrant) cells.
On the technique in general: In flow cytometry, cells or beads pass a laser one at a time.

The test system of series [3] is CHLA-200 cells. In words: Annexin V/PI flow cytometric apoptosis assay, CHLA-200. Format: cell-based, human. As to conditions: 10 nM, 24 h. Here is the method: as §1
The test system of another series is aGBM (LN-229) cells. Briefly: Annexin V/PI flow cytometric apoptosis assay, aGBM (LN-229). It counts as cell-based, human. As to conditions: 10 nM, 24 h. Here is the method:
as §1

The test system of a further series is astrocytes. Briefly: Annexin V/PI flow cytometric apoptosis assay, astrocytes. The note with it: 10 nM, 24 h. Format: cell-based, human. The protocol:
as §1

Series [4] has as its system SJ-GBM2, CHLA-200, LN-229 and astrocytes. In words: Intracellular entry by qPCR detection of antisense miR-20a. Format: cell-based, human. The note with it: 1, 10, 100 and 1,000 nM, 24 hr. From the text: (§2) Micro RNA enriched fraction was extracted using the miRNeasy Mini Kit (Qiagen, Catalog #217004) following the manufacturer's instructions. Stem loop real-time qPCR was used to analyze miRNA expression. We designed miR-20a stem loop RT primers and amplification primers according to a previously described method 79. cDNA was synthesized from extracted RNA using unique stem loop RT primers. The sequence of the stem loop primer for miR-20a was 5′-[…]-3′ (SEQ ID NO:7). Reverse transcriptase reactions contained the following reagents: 10 ng of RNA sample, 60 nM stem-loop RT primer, 1×RT buffer, 0.25 mM dNTP, and 4 U/μl reverse transcriptase. Reactions were performed by incubation at 16° C. for 30 min, 42° C. for 30 min and 85° C. for 5 min. Real-time PCR (7300 Real time PCR Systems, Applied Biosystems, CA) was performed using the specific forward primer for miR-20a (5′-[…]-3′ (SEQ ID NO:8)) and a universal reverse primer (5′-GTGCA GGGTC CGAGGT-3′ (SEQ ID NO:9)). The 20-μl PCR mixture included 1×SYBR Premix (Invitrogen), 2 μl of RT products and each forward and reverse primer at 10 nM. Reactions were performed by incubation in a 96-well plate at 95° C. for 30 sec, followed by 35 cycles of 95° C. for 30 sec and 60° C. for 30 sec. U6 was used as an internal control to normalize the level of target miRNAs. […]
(In general: Quantitative PCR measures a nucleic acid by following its amplification.)

The test system of a further series is SJ-GBM2 spheroids. Briefly: SJ-GBM2 tumor spheroids: uptake and structure. Format: cell-based, human. Here is the method:
SJ-GBM2 cells, CHLA-200 cells and astrocytes (2×10^4 cells/well) were cultured on glass slides placed in 24-well plates. After overnight culture, the cells were washed with PBS and incubated with 20 μM Alexa Fluor 568-labeled p28 peptide in medium (5% FBS and without phenol red) for 2 hr at 37° C. Cells were fixed with 2% formalin for 10 min. After washing, slides were prepared and mounted with Vectashield with DAPI (Vector Laboratories, Catalog #94010). Slides were examined by an LSM 710 confocal laser scanning microscope (Zeiss). Images were processed using ZEN software (ZEISS ZEN Lite). As for a GSC marker, the slides were first incubated with Alexa Fluor 568-labeled AmiR20-p28 for 2 hr at 37° C. Cells were fixed with 2% formalin for 10 min. After washing, slides were incubated with blocking buffer for 1 hr at room temperature, followed by consecutive staining with anti-CD133 antibody (1:500, R&D Systems FAB11331G). Slides were washed and mounted with Vectashield containing DAPI. Slides were examined by the LSM 710 confocal laser scanning microscope.
SJ-GBM2 spheroids were formed by self-aggregation of cells in the bottoms of non-adherent round bottom 96-well plates (Thermo Scientific, #174925 96U). Suspensions of 10,000 cells in 100 μl volumes of media were pipetted into individual wells and allowed to form cell-cell connections over the course of 3 days.

The subject of a further series is miR-20a. Briefly: miR-20a levels in resected tumor tissues of treated mice. It counts as in vivo. The note with it: 1 mg/kg 3 times a week for one week; vs PBS-treated mice.
Excerpt: as §2, with “NO:9)).” for “NO:9)). The 20-μl PCR mixture included 1×SYBR Premix (Invitrogen), 2 μl of RT products and each forward and reverse primer at 10 nM. Reactions were performed by incubation in a 96-well plate at 95° C. for 30 sec, followed by 35 cycles of 95° C. for 30 sec and 60° C. for 30 sec. U6 was used as an internal control to normalize the level of target miRNAs.”
A quantitative analysis using human-specific Alu sequence (hAlu) was performed on samples collected from the isolated brain tissues. […] The amount of hAlu and mGAPDH DNA in the tissue was calculated by comparison with a standard curve, and the calculated amount of hAlu DNA was normalized against the relative quantity of mGAPDH. […]

For series [5], the system named is SJ-GBM2 cells. The note with it: read-out: IC50 (cell viability); 24 hr.
Procedure: as §3, §4
Series [6] concerns 3D Human Blood Brain Barrier Model.
Procedure: Permeability experiments were carried out in a 3D Human Blood Brain Barrier Model kit (Alphabioregen, Catalog #EP010). The BBB kits were activated following the manufacturer's instructions. Briefly, the BBB model was thawed using BBB growth medium (#BBB-GM001) and incubated overnight with fresh BBB growth medium. The model was incubated with Endo-Neuro-Pharmaceuticals medium (#NMBBB001) for 3 days. AmiR20-p28 was prepared in assay buffer (Dulbecco's PBS containing CaCl2 and MgCl4, 100 mM HEPES, pH 7.0, 25 mM D-glucose). The permeability of AmiR20-p28 was measured in two directions: apical to basolateral (A-B) and basolateral to apical (B-A). The apical side represented the blood, and the basolateral side represented the brain tissue. For transport, the inserts from the BBB wells were transferred to another well containing prewarmed assay buffer. Depending on the direction, the medium in the donor compartment of the BBB model was replaced with AmiR20-p28. The plate was incubated for 30 min at 37° C. Samples were then collected from the donor and acceptor compartments and analyzed by real-time PCR. The concentrations of AmiR20-p28 in the compartments were calculated based on a standard curve developed with AmiR20-p28 at 1, 10, 100 and 1,000 nM and its relative Ct value obtained from real-time PCR. […]

Procedure for LN-229 cells: as §3, §4
Procedure for normal human astrocytes: as §3, §4

Consider “AmiR20-p28: BBB-permeable tumor-navigating CPP p28 (Cys-p28) covalently linked to 2′ O-methyl antisense miR-20a (5′-maleimide)”, for which the IC50 – broadly, the point on the concentration scale where inhibition reaches its midpoint – in the series with CHLA-200 cells [1] amounted to 0.011 µM; in the series on LN-229 cells, 0.17 µM; in the series with SJ-GBM2 cells [5] it was 0.008 µM. Besides, the “effect on cell viability” value with LN-229 cells (compared to pGBM) is on record as “less extensive”; in the series with normal human astrocytes, “negligible”. Also, the “increase in apoptotic cells by” value in the series on SJ-GBM2 cells [2] came to 16%. Further, the “apoptotic cells increased by” value with CHLA-200 cells [3] is 14%. Moreover, the “apoptotic cells after treatment” value came to 6.7% in the series with aGBM (LN-229) cells and 0.5% in the series with astrocytes. Further, in [4], the “penetration into pGBM and aGBM cells (qPCR of antisense miR-20a)” value was “preferential and dose-dependent penetration”. In the series on SJ-GBM2 spheroids (10 nM, 24 and 48 h), the “structure of the SJ-GBM2 spheroids” value is recorded as “started to disintegrate at 24 h”. Also, in the series with SJ-GBM2 spheroids (20 μM Alexa Fluor-labeled, 2 hr, 37° C.), the “uptake in tumor spheroids” value is recorded as “penetrated the tumor spheroids”. In the series with miR-20a, the “miR-20a levels in tumor tissues” value is “significant decrease in miR-20a levels”. Also, the “efflux Papp (B-A)” value in series [6] came out at 0.95 ×10⁻⁶ cm/s. For the same substance, the “influx Papp (A-B)” value in [6] is 4.39 ×10⁻⁶ cm/s.
